Test results: ChEMBL document CHEMBL1201862, “PubChem BioAssay data set” (2004)
Values belong to the compound of their own block, whether it stands above or below them. The source made the active and inactive calls.

Columns and labels:
[1] = target: NAD-dependent protein deacylase sirtuin-5, mitochondrial (Homo sapiens, UniProt Q9NXA8); assay: blockers of sirtuin-5 peptide desuccinylation – biochemical, fluorescence imaging, cherry-pick, set 6, dose response (AID 720597)
[2] = HIV-1 Vif–A3G interaction blockers – biochemical, TR-FRET, GST-Vif 1-94, biotin-A3G peptide, dose response retest, primary screen (AID 1117319); format: functional;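 also: TR-FRET signal of purified GST-Vif binding a biotinylated A3G peptide; inhibitors lower the FRET signal by blocking Vif and A3G binding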
Protein Tat = Protein Tat (Human immunodeficiency virus type 1 group M subtype B (isolate HXB2)(HIV-1), UniProt P04608); format: functional;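 also: tat binding to TAR RNA read out by fluorescence polarization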
[3] = IC50 of insulin release inhibition, rat insulinoma INS-1E line, 5 mM glucose, cell-based (AID 1117331); format: functional
cells = format: functional, cell-based; conditions: INS-1E
[4] = Shn3 3'UTR reporter signal decrease – cell-based, Clone20 osteoblasts, firefly luciferase, cherry-pick, set 2, Schnurri-3 inhibitor project, dose response (AID 720490); format: functional;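 also: actives lower the luminescence signal as inhibitors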
[5] = target: Matrix metalloproteinase-14 (Homo sapiens, UniProt P50281); assay: Dose Response confirmation of uHTS hits for a small molecule inhibitors of MT1-MMP activation in a fluorescence assay set 1.; format: functional
[6] = non-specific 3'UTR reporter inhibition in Clone20-Shn3RL – cell-based, Renilla luciferase, cherry-picked, counter-screen for Shn3 inhibitor project, dose response (AID 624133); format: functional
[7] = loss of viability in HepG2 cells – cell-based, CellTiter-Glo, cherry-picked, cytotoxicity control for Shn3 inhibitor project, dose response (AID 624134); format: functional
[8] = reduction of Shn3 3'UTR-driven luciferase in osteoblasts – cell-based, Clone20 osteoblasts, firefly luciferase, cherry-picked, dose response (AID 624132); format: functional;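 also: firefly luciferase luminescence from reporter carrying the Shn3 3'UTR in osteoblasts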
[9] = target: Disintegrin and metalloproteinase domain-containing protein 17 (Homo sapiens, UniProt P78536); assay: inhibition of ADAM17 substrate cleavage – biochemical, quenched FRET substrate, counter-screen for ADAM10 exosite inhibitor project, dose response (AID 743253)
[10] = potency of ADAM10 substrate cleavage blockers – biochemical, QFRET, dose response (AID 743254);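 also: ADAM10 enzyme with the DM2 quenched FRET peptide as substrate; EDANS fluorescence gain as the protease cuts the substrate; inhibitor potency against ADAM10 proteolytic activity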
[11] = target: G-protein coupled receptor 183 (Homo sapiens, UniProt P32249); assay: Dose-response confirmation of small molecule antagonists of the EBI2 receptor via a luminescent beta-arrestin assay.; format: functional
Beta-galactosidase = Beta-galactosidase (Escherichia coli, UniProt Q8VNN2); assay: Dose response counterscreen for EBI2 assay utilizing the enzyme, b-galactosidase.; format: functional
[12] = YAP1 overexpression rescue of CTGF inhibition – DLD1 cells, RT-qPCR, cherry-pick, mechanism study for YAP1 pathway inhibitor project, dose response (AID 1053127); format: functional, cell-based; conditions: DLD-1
[13] = target: Potassium channel subfamily K member 3 (Homo sapiens, UniProt O14649); assay: inhibition of human KCNK3 channel flux – CHO cells, FluxOR thallium flux, SAR follow-up (AID 652212); format: functional
Chain of Potassium channel subfamily K member 3 (O14649 whole entry): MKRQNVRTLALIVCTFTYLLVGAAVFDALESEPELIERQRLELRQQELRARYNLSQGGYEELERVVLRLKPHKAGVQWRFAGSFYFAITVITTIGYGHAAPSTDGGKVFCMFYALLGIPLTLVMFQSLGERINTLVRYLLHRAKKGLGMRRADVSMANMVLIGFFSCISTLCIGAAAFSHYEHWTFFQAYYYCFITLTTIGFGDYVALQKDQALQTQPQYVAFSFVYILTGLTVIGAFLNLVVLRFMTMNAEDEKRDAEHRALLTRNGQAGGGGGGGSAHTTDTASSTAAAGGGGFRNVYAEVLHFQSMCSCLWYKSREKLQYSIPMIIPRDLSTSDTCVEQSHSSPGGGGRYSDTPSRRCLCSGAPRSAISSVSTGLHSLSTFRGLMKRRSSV

Chain of Protein Tat (P04608 whole entry): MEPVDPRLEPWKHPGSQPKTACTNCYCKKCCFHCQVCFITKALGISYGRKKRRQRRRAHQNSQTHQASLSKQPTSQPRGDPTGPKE
Chain of NAD-dependent protein deacylase sirtuin-5, mitochondrial (Q9NXA8 whole entry): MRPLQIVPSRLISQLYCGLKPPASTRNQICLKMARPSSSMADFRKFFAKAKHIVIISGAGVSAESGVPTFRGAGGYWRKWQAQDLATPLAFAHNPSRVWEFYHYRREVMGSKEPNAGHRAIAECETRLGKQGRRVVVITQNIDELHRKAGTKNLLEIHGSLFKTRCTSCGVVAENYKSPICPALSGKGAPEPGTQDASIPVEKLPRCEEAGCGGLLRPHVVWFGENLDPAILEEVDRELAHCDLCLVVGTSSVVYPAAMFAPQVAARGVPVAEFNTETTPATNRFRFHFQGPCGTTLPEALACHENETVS
Chain of G-protein coupled receptor 183 (P32249 whole entry): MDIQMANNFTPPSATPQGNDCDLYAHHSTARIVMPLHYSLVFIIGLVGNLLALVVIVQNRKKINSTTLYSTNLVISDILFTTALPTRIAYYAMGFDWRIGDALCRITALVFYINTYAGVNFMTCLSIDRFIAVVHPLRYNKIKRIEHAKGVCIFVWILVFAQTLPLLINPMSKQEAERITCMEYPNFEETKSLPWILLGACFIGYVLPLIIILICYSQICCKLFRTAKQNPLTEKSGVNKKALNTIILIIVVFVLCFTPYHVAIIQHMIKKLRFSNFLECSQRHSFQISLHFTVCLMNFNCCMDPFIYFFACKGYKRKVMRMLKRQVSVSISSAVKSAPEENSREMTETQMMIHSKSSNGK
Chain of Disintegrin and metalloproteinase domain-containing protein 17 (P78536 whole entry, the tested form may be a part): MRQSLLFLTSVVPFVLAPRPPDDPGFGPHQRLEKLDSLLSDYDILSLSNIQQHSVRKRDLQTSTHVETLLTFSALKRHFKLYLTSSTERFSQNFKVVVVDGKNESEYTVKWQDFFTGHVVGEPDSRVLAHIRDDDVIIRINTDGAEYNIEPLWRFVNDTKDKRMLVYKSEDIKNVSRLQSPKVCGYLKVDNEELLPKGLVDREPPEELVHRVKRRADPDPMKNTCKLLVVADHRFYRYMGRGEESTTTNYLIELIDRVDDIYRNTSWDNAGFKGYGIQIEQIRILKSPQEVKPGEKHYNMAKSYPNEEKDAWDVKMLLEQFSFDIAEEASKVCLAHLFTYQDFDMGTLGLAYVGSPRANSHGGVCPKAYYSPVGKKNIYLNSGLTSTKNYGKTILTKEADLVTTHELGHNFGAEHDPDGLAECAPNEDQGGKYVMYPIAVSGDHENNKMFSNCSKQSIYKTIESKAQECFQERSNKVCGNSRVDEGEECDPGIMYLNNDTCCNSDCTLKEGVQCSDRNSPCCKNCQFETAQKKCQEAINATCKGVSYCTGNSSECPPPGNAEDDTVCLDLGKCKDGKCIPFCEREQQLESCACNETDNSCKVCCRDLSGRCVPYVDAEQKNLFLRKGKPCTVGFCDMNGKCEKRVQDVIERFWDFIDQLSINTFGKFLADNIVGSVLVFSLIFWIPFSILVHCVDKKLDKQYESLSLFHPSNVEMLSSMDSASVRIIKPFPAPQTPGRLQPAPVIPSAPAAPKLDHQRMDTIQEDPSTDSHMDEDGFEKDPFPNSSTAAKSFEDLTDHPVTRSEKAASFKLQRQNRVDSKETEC
Chain of Beta-galactosidase (Q8VNN2 whole entry): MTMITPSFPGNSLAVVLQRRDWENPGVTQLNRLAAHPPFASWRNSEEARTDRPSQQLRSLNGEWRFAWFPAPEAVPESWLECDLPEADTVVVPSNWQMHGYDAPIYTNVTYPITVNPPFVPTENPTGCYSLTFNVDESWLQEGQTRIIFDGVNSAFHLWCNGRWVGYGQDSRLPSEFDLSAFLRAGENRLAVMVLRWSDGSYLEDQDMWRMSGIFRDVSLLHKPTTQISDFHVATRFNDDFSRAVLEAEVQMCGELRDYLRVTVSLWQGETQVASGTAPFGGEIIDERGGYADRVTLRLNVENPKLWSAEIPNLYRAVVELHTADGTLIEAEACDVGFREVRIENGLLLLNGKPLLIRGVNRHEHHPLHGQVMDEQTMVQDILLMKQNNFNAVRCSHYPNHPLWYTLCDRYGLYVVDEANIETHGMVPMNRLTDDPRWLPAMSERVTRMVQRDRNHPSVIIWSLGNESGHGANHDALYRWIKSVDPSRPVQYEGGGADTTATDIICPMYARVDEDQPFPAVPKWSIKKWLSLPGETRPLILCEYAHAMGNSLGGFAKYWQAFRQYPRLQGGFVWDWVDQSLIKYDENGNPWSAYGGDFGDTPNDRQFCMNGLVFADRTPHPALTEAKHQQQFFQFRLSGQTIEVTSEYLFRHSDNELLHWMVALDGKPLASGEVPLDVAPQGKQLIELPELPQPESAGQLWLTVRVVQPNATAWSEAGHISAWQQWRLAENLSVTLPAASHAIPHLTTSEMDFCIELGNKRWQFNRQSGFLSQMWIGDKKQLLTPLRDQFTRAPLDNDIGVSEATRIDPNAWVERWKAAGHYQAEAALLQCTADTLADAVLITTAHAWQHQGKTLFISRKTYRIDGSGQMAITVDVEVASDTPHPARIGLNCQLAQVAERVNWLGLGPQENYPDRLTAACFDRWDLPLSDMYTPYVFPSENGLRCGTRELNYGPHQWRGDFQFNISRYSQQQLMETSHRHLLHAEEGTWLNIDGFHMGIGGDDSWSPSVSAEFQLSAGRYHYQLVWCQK

- IC50 [2]: > 100 µM (active)
- IC50 (Protein Tat): > 100 µM (active)
SMILES: COc1cc(/C=C(\CC(=O)O)c2nc3ccccc3s2)cc(OC)c1O

- IC50 [9]: > 69.5 µM (inactive)
- IC50 [10]: > 7.72 µM (active)
SMILES: COc1ccc(-c2[nH]nc(C)c2-c2cnn(-c3ccccc3)c2)c(O)c1C

- IC50 [11]: 0.626 µM (active)
- IC50 (Beta-galactosidase): > 80 µM (inactive)
SMILES: O=C(/C=C/c1ccccc1)N1CCN(S(=O)(=O)c2ccc(F)cc2)CC1

The remaining lines, values behind:

SMILES: Cc1ccc(S(=O)(=O)N(C)C[C@H]2OCCCC[C@H](C)Oc3ccc(NS(=O)(=O)c4ccc(F)cc4)cc3C(=O)N([C@@H](C)CO)C[C@H]2C)cc1
- AC50 [1]: > 30 µM (inactive)

SMILES: CCN(CC)CCNC(C(=O)OCCC(C)C)c1ccccc1 (stereo unspecified) [CAMYLOFIN]
- IC50 [3]: 24.8 µM (inactive)
- IC50 (cells): > 33.3 µM (inactive)

SMILES: CNc1ccccc1C(C)(C)c1cc(-c2cccc(OC)c2)no1
- AC50 [4]: 1.82 µM (active)
- IC50 [5]: > 80 µM (inactive)
- AC50 [6]: 9.49 µM (active)
- AC50 [7]: 56.8 µM (active)
- AC50 [8]: 1.92 µM (active)

SMILES: CS(=O)(=O)N1CC(=O)N2[C@H](C1)[C@@H](c1ccc(C#Cc3ccc(F)cc3)cc1)[C@@H]2CO
- AC50 [12]: > 26 µM (inactive)

SMILES: CCOc1ccc(NC(=O)c2cccc(NC(=O)C3CCCC3)c2)cc1
- IC50 [13]: 0.07 µM (active)
